Patent US6706663B2, “Herbicidal 3-heterocyclic substituted benzisothiazole and benzisoxazole compounds” (Wyeth, priority 2000, dated 2004)

Legend:
[1] = test system: GALAP (Galium aparine); experiment: Postemergence herbicidal evaluation; assay type: in vivo
In short: (§1)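 Seedlings grown for about two weeks were sprayed postemergence and then kept under standard greenhouse care. Injury was rated visually 4–5 weeks after treatment on a 0–9 scale against untreated controls, and ratings from repeat tests were averaged.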

[2] = test system: SETVI (Setaria viridis); experiment: Postemergence herbicidal evaluation; assay type: in vivo, (L.) Beau
In short: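 First, seedlings are raised in flats for about two weeks. Next, compound dispersed in 50/50 acetone/water with 0.5% TWEEN 20 is sprayed at 40 psi to deliver about 0.0040–1.000 kg/ha. Plants are then maintained in the greenhouse and rated 0-9 after four to five weeks.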

[3] = test system: GLXMAW (Soybean, Williams); experiment: Postemergence herbicidal evaluation; assay type: in vivo, Glycine max, (L.) Merr. cv Williams
In short: as §1

[4] = test system: GALAP (Galium aparine); experiment: Preemergence herbicidal evaluation; assay type: in vivo; settings: preemergence, rated 4-5 weeks after treatment
In short: (§2)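 Test compound is applied in aqueous acetone to cups just after seeding. Cups are watered and maintained on greenhouse benches. Each cup is scored 0–9 by eye relative to a control after four to five weeks.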

[5] = test system: IPOHE (Ipomoea hederacea); experiment: Preemergence herbicidal evaluation; assay type: in vivo, (L.) Jacq.; settings: preemergence, rated 4-5 weeks after treatment
[6] = test system: ECHCG (Echinochloa crus-galli); experiment: Preemergence herbicidal evaluation; assay type: in vivo, (L.) Beau; settings: preemergence, rated 4-5 weeks after treatment
In short: as §2

[7] = test system: SETVI (Setaria viridis); experiment: Preemergence herbicidal evaluation; assay type: in vivo, (L.) Beau; settings: preemergence, rated 4-5 weeks after treatment
In short: as §2

[8] = test system: GLXMAW (Soybean, Williams); experiment: Preemergence herbicidal evaluation; assay type: in vivo, Glycine max, (L.) Merr. cv Williams; settings: preemergence, rated 4-5 weeks after treatment
[9] = test system: ZEAMX (Corn, Field); experiment: Preemergence herbicidal evaluation; assay type: in vivo, Zea mays, L.; settings: preemergence, rated 4-5 weeks after treatment
[10] = test system: CYPIR (Cyperus iria); experiment: Flooded paddy, preemergence weed control; assay type: in vivo; settings: rated 3-4 weeks after treatment, 0-9 rating scale
In short: (§3)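 Seeds or propagules were planted in the top 0.5 cm of silt loam soil and kept flooded 1.5–3 cm above the surface throughout, then held in the greenhouse. Injury was rated visually on a 0–9 scale against untreated controls, covering stand, vigor, malformation, size and chlorosis.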

[11] = test system: MOOVA (Monochoria vaginalis); experiment: Flooded paddy, preemergence weed control; assay type: in vivo, Presl.; settings: rated 3-4 weeks after treatment, 0-9 rating scale
In short: as §3

Structure (SMILES) | Postemergence herbicidal rating, GALAP ([1]; rate 0.0320 kg/ha) | Postemergence herbicidal rating, GALAP ([1]; rate 0.0620 kg/ha) | Postemergence herbicidal rating, SETVI ([2]; rate 0.0320 kg/ha) | Postemergence herbicidal rating, SETVI ([2]; rate 0.0620 kg/ha) | Postemergence herbicidal rating, GLXMAW ([3]; rate 0.0320 kg/ha) | Postemergence herbicidal rating, GLXMAW ([3]; rate 0.0620 kg/ha) | GALAP preemergence herbicidal rating ([4]; Rate 0.0620 kg/ha) | GALAP preemergence herbicidal rating ([4]; Rate 0.1250 kg/ha) | GALAP preemergence herbicidal rating ([4]; Rate 0.2500 kg/ha) | IPOHE preemergence herbicidal rating ([5]; Rate 0.0620 kg/ha) | IPOHE preemergence herbicidal rating ([5]; Rate 0.1250 kg/ha) | IPOHE preemergence herbicidal rating ([5]; Rate 0.2500 kg/ha) | ECHCG preemergence herbicidal rating ([6]; Rate 0.0620 kg/ha) | ECHCG preemergence herbicidal rating ([6]; Rate 0.1250 kg/ha) | ECHCG preemergence herbicidal rating ([6]; Rate 0.2500 kg/ha) | SETVI preemergence herbicidal rating ([7]; Rate 0.0620 kg/ha) | SETVI preemergence herbicidal rating ([7]; Rate 0.1250 kg/ha) | SETVI preemergence herbicidal rating ([7]; Rate 0.2500 kg/ha) | GLXMAW preemergence herbicidal rating ([8]; Rate 0.0620 kg/ha) | GLXMAW preemergence herbicidal rating ([8]; Rate 0.1250 kg/ha) | further results
Cn1c(C(F)(F)F)cc(=O)n(-c2ccc3snc(C4OCCCO4)c3c2)c1=O [Compound 28, 3-(3-m-dioxan-2-yl-1,2-benzisothiazol-5-yl)-1-methyl-6-(trifluoromethyl)uracil] | 8.3 | 9.0 | 8.3 | 8.5 | 9.0 | 9.0 | 9.0 | 9.0 | 9.0 | 9.0 | 9.0 | 9.0 | 9.0 | 9.0 | 9.0 | 9.0 | 9.0 | 9.0 | 8.0 | 9.0 | GLXMAW preemergence herbicidal rating ([8]; Rate 0.2500 kg/ha): 9.0; ZEAMX preemergence herbicidal rating ([9]; Rate 0.0620 kg/ha): 8.0; ZEAMX preemergence herbicidal rating ([9]; Rate 0.1250 kg/ha): 9.0; ZEAMX preemergence herbicidal rating ([9]; Rate 0.2500 kg/ha): 9.0; herbicidal rating, CYPIR ([10]; rate 0.0080 kg/ha): 8.0; herbicidal rating, CYPIR ([10]; rate 0.0320 kg/ha): 9.0; herbicidal rating, CYPIR ([10]; rate 0.1250 kg/ha): 9.0; herbicidal rating, MOOVA ([11]; rate 0.0080 kg/ha): 9.0; herbicidal rating, MOOVA ([11]; rate 0.0320 kg/ha): 9.0; herbicidal rating, MOOVA ([11]; rate 0.1250 kg/ha): 9.0
CC(=O)N1CCSC1c1nsc2ccc(-n3c(=O)cc(C(F)(F)F)n(C)c3=O)cc12 (stereo not shown) [Compound 29, 3-acetyl-2-[5-[3,6-dihydro-3-methyl-2,6-dioxo-4-(trifluoromethyl)-1(2H)-pyrimidinyl]-1,2-benzisothiazol-3-yl]thiazolidine] | 4.0 | 6.0 | 0.0 | 5.0 | 7.5 | 8.0 | 3.0 | 7.0 | 9.0 | 5.0 | 7.5 | 9.0 | 5.5 | 6.5 | 8.0 | 6.5 | 7.5 | 9.0 | 6.5 | 7.0 | GLXMAW preemergence herbicidal rating ([8]; Rate 0.2500 kg/ha): 9.0; ZEAMX preemergence herbicidal rating ([9]; Rate 0.0620 kg/ha): 5.5; ZEAMX preemergence herbicidal rating ([9]; Rate 0.1250 kg/ha): 7.0; ZEAMX preemergence herbicidal rating ([9]; Rate 0.2500 kg/ha): 7.0; herbicidal rating, CYPIR ([10]; rate 0.0080 kg/ha): 0.0; herbicidal rating, CYPIR ([10]; rate 0.0320 kg/ha): 7.0; herbicidal rating, CYPIR ([10]; rate 0.1250 kg/ha): 9.0; herbicidal rating, MOOVA ([11]; rate 0.0080 kg/ha): 0.0; herbicidal rating, MOOVA ([11]; rate 0.0320 kg/ha): 9.0; herbicidal rating, MOOVA ([11]; rate 0.1250 kg/ha): 9.0
Cn1c(C(F)(F)F)cc(=O)n(-c2ccc3snc(C4SCCN4C(=O)c4ccccc4)c3c2)c1=O (stereo not shown) [Compound 30, 3-benzoyl-2-[5-[3,6-dihydro-3-methyl-2,6-dioxo-4-(trifluoromethyl)-1(2H)-pyrimidinyl]-1,2-benzisothiazol-3-yl]thiazolidine] | 1.0 | 3.0 | 0.0 | 4.0 | 6.0 | 6.5 | 0.0 | 7.0 | 9.0 | 1.5 | 1.5 | 6.5 | 0.0 | 4.0 | 5.0 | 1.0 | 8.0 | 9.0 | 1.0 | 0.0 | GLXMAW preemergence herbicidal rating ([8]; Rate 0.2500 kg/ha): 5.0; ZEAMX preemergence herbicidal rating ([9]; Rate 0.0620 kg/ha): 0.5; ZEAMX preemergence herbicidal rating ([9]; Rate 0.1250 kg/ha): 3.5; ZEAMX preemergence herbicidal rating ([9]; Rate 0.2500 kg/ha): 5.5; herbicidal rating, CYPIR ([10]; rate 0.0080 kg/ha): 0.0; herbicidal rating, CYPIR ([10]; rate 0.0320 kg/ha): 7.0; herbicidal rating, CYPIR ([10]; rate 0.1250 kg/ha): 9.0; herbicidal rating, MOOVA ([11]; rate 0.0080 kg/ha): 0.0; herbicidal rating, MOOVA ([11]; rate 0.0320 kg/ha): 8.5; herbicidal rating, MOOVA ([11]; rate 0.1250 kg/ha): 9.0
Cn1c(C(F)(F)F)cc(=O)n(-c2ccc3snc(C4OCCS4)c3c2)c1=O (stereo not shown) [Compound 31, 1-methyl-3-[3-(1,3-oxathiolan-2-yl)-1,2-benzisothiazol-5-yl]-6-(trifluoromethyl)uracil] | 6.0 | 9.0 | 3.0 | 7.0 | 8.5 | 9.0 | 5.0 | 9.0 | 9.0 | 5.0 | 9.0 | 9.0 | 4.7 | 8.7 | 9.0 | 7.7 | 9.0 | 9.0 | 8.5 | 7.3 | GLXMAW preemergence herbicidal rating ([8]; Rate 0.2500 kg/ha): 9.0; ZEAMX preemergence herbicidal rating ([9]; Rate 0.0620 kg/ha): 4.7; ZEAMX preemergence herbicidal rating ([9]; Rate 0.1250 kg/ha): 6.3; ZEAMX preemergence herbicidal rating ([9]; Rate 0.2500 kg/ha): 8.5; herbicidal rating, CYPIR ([10]; rate 0.0080 kg/ha): 0.0; herbicidal rating, CYPIR ([10]; rate 0.0320 kg/ha): 9.0; herbicidal rating, CYPIR ([10]; rate 0.1250 kg/ha): 9.0; herbicidal rating, MOOVA ([11]; rate 0.0080 kg/ha): 5.0; herbicidal rating, MOOVA ([11]; rate 0.0320 kg/ha): 9.0; herbicidal rating, MOOVA ([11]; rate 0.1250 kg/ha): 9.0
Cn1c(C(F)(F)F)cc(=O)n(-c2ccc3snc(C(SCCO)SCCO)c3c2)c1=O [Compound 33, 1,2-benzisothiazole-3-carboxaldehyde, 5-[3,6-dihydro-3-methyl-2,6-dioxo-4-(trifluoromethyl)-1(2H)-pyrimidinyl]-, 3-[bis(2-hydroxyethyl)dithioacetal]] | 0.0 | 3.0 | 1.0 | 4.0 | 5.0 | 5.5 | 3.0 | 2.0 | 7.0 | 0.0 | 5.0 | 5.0 | 0.0 | 0.0 | 5.0 | 0.0 | 0.0 | 6.0 | 0.0 | 1.0 | GLXMAW preemergence herbicidal rating ([8]; Rate 0.2500 kg/ha): 3.0; ZEAMX preemergence herbicidal rating ([9]; Rate 0.0620 kg/ha): 0.0; ZEAMX preemergence herbicidal rating ([9]; Rate 0.1250 kg/ha): 2.0; ZEAMX preemergence herbicidal rating ([9]; Rate 0.2500 kg/ha): 2.0; herbicidal rating, CYPIR ([10]; rate 0.0320 kg/ha): 0.0; herbicidal rating, CYPIR ([10]; rate 0.1250 kg/ha): 3.0; herbicidal rating, MOOVA ([11]; rate 0.0320 kg/ha): 0.0; herbicidal rating, MOOVA ([11]; rate 0.1250 kg/ha): 4.0
